# Measurements taken from patent US4897409A, “5-aminoethyloxazolidin-2-one derivatives” (Delalande S.A., priority 1986, dated 1990).
# Experiments:
# [1] = target: T1, MAO-B of the brain of a rat (Rattus norvegicus, UniProt P19643); assay: in vitro inhibition of MAO-B, total rat brain homogenate; type: biochemical; conditions: preincubation of 60'; for ratio IC 50 (A) / IC 50 (B) (head is drawing 22): selectivity MAO-B over MAO-A, 60 min; for IC50: total rat brain homogenate, 1 g of tissue/16 ml phosphate buffer pH 7.4, substrate [14C]phenylethylamine 12 μM, read-out: IC 50 (B), MAO-B
# T1 construct: total rat brain homogenate, with 1 g of tissue/16 ml of phosphate buffer; from tissue; host or cells: rat brain, total homogenate
# T1 sequence (P19643 1-520): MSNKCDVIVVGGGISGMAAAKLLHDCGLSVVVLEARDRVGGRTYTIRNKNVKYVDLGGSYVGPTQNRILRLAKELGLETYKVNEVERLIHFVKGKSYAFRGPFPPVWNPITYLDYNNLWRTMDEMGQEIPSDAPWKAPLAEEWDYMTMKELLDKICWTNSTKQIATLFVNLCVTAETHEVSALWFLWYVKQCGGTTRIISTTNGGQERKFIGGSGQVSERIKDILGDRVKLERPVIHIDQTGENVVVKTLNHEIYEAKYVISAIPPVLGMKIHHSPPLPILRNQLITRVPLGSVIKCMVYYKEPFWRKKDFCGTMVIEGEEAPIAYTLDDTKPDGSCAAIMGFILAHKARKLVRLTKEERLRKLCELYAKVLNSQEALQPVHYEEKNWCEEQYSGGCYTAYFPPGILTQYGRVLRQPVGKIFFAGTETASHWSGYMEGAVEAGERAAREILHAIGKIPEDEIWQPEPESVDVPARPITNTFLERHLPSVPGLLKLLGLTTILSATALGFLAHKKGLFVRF
# Procedure: (§1) This activity has been given prominence by the implementation of the protocol described by P. DOSTERT et al. in J. Pharm. Parmacol., 1983, 35, 161-165; this protocol is based on enzymatic tests carried out with or without preincubation in particular for 60 minutes and it allows measurement in vitro of the inhibiting effect with regard to the MAO-A and the MAO-B of the brain of a rat.
# (§2) In Table 4 below are shown the inhibiting concentrations 50 (IC 50) for the A and B forms of MAO, obtained for a number of compounds (I) according to the invention following the above protocol applied to a total rat brain homogenate, with 1 g of tissue/16 ml of phosphate buffer of pH 7.4.
# (§3) Substrate concentrations: [^14 C]5hydroxytryptamine = 480 μM,
# (§4) [^14 C]phenylethylamine = 12 μM for the study of the inhibition o
# [2] = target: T2, MAO-A of the brain of a rat (Rattus norvegicus, UniProt P21396); assay: in vitro inhibition of MAO-A, total rat brain homogenate; type: biochemical; conditions: preincubation of 60', 1 g of tissue/16 ml phosphate buffer pH 7.4, substrate [14C]5-hydroxytryptamine 480 μM, read-out: IC 50 (A), MAO-A
# T2 construct: total rat brain homogenate, with 1 g of tissue/16 ml of phosphate buffer; from tissue; host or cells: rat brain, total homogenate
# T2 sequence (P21396 1-526): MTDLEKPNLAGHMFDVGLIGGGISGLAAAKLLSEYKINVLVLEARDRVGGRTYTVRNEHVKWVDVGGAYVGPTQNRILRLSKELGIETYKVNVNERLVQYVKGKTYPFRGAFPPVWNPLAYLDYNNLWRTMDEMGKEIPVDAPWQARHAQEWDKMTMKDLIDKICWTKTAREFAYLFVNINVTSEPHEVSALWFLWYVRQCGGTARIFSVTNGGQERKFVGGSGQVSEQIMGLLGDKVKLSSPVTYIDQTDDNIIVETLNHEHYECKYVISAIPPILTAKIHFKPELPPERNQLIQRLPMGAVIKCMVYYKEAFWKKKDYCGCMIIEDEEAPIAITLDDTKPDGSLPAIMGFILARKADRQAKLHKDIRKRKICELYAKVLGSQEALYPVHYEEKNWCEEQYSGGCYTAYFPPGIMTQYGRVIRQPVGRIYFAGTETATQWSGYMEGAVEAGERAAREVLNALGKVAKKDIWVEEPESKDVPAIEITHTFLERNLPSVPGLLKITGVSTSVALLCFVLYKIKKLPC
# Procedure: as §1, §2, §3, §4
SMILES,ratio IC 50 (A) / IC 50 (B) (head is drawing 22) [1],IC50 [1] [µM],IC50 [2] [µM]
C[C@H]([C@H]1CN(c2ccc(OCc3cccc(Cl)c3)cc2)C(=O)O1)N(C)C (relative stereo) [compound 340748],> 15,20,300
CN[C@H](C)[C@H]1CN(c2ccc(OCc3cccc(Cl)c3)cc2)C(=O)O1 [compound 340276],110,1.35,148
"C[C@@H]([C@H]1CN(c2ccc(OCc3cccc(Cl)c3)cc2)C(=O)O1)N(C)C [compound 200562, erythro stereoisomer (-) (R, S) of 3-[4-(3-chlorobenzyloxy)phenyl] 5-(1-dimethylaminoethyl) oxazolidin-2-one]",> 1887,0.053,> 100
C[C@@H](N)[C@H]1CN(c2ccc(OCc3cccc(Cl)c3)cc2)C(=O)O1 [compound 340321],> 19,5.34,> 100
COc1cccc(COc2ccc(N3C[C@@H]([C@@H](C)N(C)C)OC3=O)cc2)c1 [compound 340747],> 67,15,> 1000
C[C@@H]([C@H]1CN(c2ccc(OCc3cccc(Cl)c3)cc2)C(=O)O1)N(C)C (relative stereo) [compound 340742],> 6250,0.16,> 1000
COc1cccc(COc2ccc(N3C[C@H]([C@H](C)N(C)C)OC3=O)cc2)c1 (relative stereo) [compound 340743],2500,0.4,1000
CN[C@H](C)[C@@H]1CN(c2ccc(OCc3cccc(Cl)c3)cc2)C(=O)O1 [compound 340179],16,1.16,18.3
CN[C@@H](C)[C@H]1CN(c2ccc(OCc3cccc(Cl)c3)cc2)C(=O)O1 [compound 340271],95,0.078,7.43
C[C@H](N)[C@H]1CN(c2ccc(OCc3cccc(Cl)c3)cc2)C(=O)O1 (relative stereo) [compound 340750],553,0.38,210
C[C@H](N)[C@@H]1CN(c2ccc(OCc3cccc(Cl)c3)cc2)C(=O)O1 [compound 340366],> 61,1.64,> 100
COc1cccc(COc2ccc(N3C[C@H]([C@@H](C)N(C)C)OC3=O)cc2)c1 (relative stereo) [compound 340749],> 10,300,> 30
C[C@H]([C@@H]1CN(c2ccc(OCc3cccc(Cl)c3)cc2)C(=O)O1)N(C)C [compound 340746],> 625,1.6,> 1000
CN[C@@H](C)[C@@H]1CN(c2ccc(OCc3cccc(Cl)c3)cc2)C(=O)O1 [compound 340333],> 78,1.28,> 100
COc1cccc(COc2ccc(N3C[C@H]([C@H](C)N(C)C)OC3=O)cc2)c1 [compound 340744],> 4000,0.25,> 1000
CN[C@@H](C)[C@H]1CN(c2ccc(OCc3cccc(Cl)c3)cc2)C(=O)O1 (relative stereo) [compound 340745],300,0.05,15
